The target in test [1] is cellular DNA polymerase β (Homo sapiens, UniProt P06746). In words: Cellular DNA polymerase β assay. It is filed as biochemical.
The target in test [2] is HCMV DNA polymerase (Human cytomegalovirus, UniProt P08546). In words: HCMV DNA polymerase enzyme assay. It is filed as biochemical. The settings on record: calf thymus DNA.
Test [3] concerns the target T1, cellular DNA polymerase α (Homo sapiens, UniProt P09884).
T1 sequence (P09884 1-1462): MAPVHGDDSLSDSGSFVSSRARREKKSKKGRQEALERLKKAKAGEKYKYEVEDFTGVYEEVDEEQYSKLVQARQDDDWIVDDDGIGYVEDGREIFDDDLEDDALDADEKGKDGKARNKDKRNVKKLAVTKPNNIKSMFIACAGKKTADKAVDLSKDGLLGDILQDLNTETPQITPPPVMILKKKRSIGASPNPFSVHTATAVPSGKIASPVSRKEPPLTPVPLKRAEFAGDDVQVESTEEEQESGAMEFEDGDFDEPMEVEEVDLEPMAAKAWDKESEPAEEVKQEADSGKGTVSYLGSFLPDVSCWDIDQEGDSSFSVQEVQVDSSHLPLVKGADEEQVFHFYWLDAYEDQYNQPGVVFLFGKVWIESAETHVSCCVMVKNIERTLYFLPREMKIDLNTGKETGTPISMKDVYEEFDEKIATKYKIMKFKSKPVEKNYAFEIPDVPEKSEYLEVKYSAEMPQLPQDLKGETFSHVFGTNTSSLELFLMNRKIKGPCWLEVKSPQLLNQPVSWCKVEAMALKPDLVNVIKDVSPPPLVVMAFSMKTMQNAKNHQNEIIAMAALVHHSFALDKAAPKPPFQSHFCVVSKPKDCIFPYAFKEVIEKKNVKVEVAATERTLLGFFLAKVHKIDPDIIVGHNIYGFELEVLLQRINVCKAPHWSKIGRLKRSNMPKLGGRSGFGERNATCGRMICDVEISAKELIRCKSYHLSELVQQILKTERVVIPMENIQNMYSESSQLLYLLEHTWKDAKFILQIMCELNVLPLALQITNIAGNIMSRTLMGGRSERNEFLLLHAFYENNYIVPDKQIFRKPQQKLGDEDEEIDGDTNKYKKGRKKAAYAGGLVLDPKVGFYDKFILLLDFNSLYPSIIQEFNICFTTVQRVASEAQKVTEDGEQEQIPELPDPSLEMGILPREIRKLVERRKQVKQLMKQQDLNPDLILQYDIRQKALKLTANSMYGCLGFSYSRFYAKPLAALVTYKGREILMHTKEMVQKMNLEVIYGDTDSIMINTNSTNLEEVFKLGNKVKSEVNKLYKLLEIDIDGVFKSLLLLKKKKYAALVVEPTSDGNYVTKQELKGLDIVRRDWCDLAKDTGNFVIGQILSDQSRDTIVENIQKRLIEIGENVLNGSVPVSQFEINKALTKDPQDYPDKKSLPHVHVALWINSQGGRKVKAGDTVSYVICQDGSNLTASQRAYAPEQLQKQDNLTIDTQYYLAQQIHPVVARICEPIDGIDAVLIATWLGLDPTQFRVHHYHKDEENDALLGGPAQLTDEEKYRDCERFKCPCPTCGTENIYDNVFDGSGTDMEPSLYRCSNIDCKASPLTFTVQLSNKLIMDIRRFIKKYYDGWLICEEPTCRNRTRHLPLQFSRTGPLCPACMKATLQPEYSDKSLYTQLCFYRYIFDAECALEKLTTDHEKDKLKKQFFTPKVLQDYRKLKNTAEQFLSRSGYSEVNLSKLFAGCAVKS
In words: Cellular DNA polymerase α assay. Type of test: biochemical.

For test [4], the target named is HSV-1 DNA polymerase (Human herpesvirus 1, UniProt P04293). In words: HSV-1 DNA polymerase enzyme assay. Particulars: calf thymus DNA. Type of test: biochemical.
For test [5], the system named is HIV-1 RT V106A.
Test [6] concerns HIV-1 RT M184V + Y115F. In words: Mutant HIV-1 RT assay M184V + Y115F. Type of test: biochemical. Particulars: Poly rI.dC [^3H]dCTP.
The test system of test [7] is HIV-1 RT V75I. In words: Mutant HIV-1 RT assay V75I. Type of test: biochemical. The settings on record: Poly rA.dT [^3H]dTTP.
Test [8] deals with HIV-1 RT K70R. In words: Mutant HIV-1 RT assay K70R. Type of test: biochemical. The settings on record: Poly rA.dT [^3H]dTTP.
Test [9] has as its system HIV-1 RT K70Q. In words: Mutant HIV-1 RT assay K70Q. Type of test: biochemical. The settings on record: Poly rI.dC [^3H]dCTP.
Test [10] deals with HIV-1 RT K103N.
The target in test [11] is HIV-1 RT (Human immunodeficiency virus type 1 group M subtype B, UniProt P04585). In words: HIV-1 RT assay with homopolymeric template/primers. Type of test: biochemical.
The test system of test [12] is HIV-1 RT K70E. In words: Mutant HIV-1 RT assay K70E. It is filed as biochemical.
For test [13], the system named is HIV-1 RT M184V. In words: Mutant HIV-1 RT assay M184V. It is filed as biochemical. The settings on record: Poly rI.dC [^3H]dCTP.
Test [14] deals with HIV-1 RT Q151M. In words: Mutant HIV-1 RT assay Q151M. Type of test: biochemical.
In test [15] the test system is HIV-1 RT M184I + E138K. In words: Mutant HIV-1 RT assay M184I + E138K. It is filed as biochemical.
Test [16] deals with HIV-1 RT Y181C.
Test [17] has as its system HIV-1 RT M184I. In words: Mutant HIV-1 RT assay M184I. It is filed as biochemical. Particulars: Poly rI.dC [^3H]dCTP.
In test [18] the test system is HIV-1 RT E138K. In words: Mutant HIV-1 RT assay E138K. Type of test: biochemical.
In test [19] the test system is HIV-1 RT L100I. The settings on record: Poly rA.dT [^3H]dTTP.
Test [20] has as its system HIV-1 RT K65R. In words: Mutant HIV-1 RT assay K65R. It is filed as biochemical.
The subject of test [21] is HIV-1 RT M184V + E138K. In words: Mutant HIV-1 RT assay M184V + E138K. Type of test: biochemical. Particulars: Poly rI.dC [^3H]dCTP.
For test [22], the system named is HIV-1 RT F61A. In words: Mutant HIV-1 RT assay F61A. It is filed as biochemical.
Setting [23] is: read-out: IC50 HIV-1 RT, poly rA.dT, [^3H]dTTP.
[24] abbreviates: read-out: IC50 HIV-1 RT, poly rC.dG, [^3H]dGTP.
[25] abbreviates: read-out: IC50 β DNA pol, calf thymus DNA, [^3H]dGTP.
The mark [26] stands for this setting: read-out: IC50 HCMV DNA pol, [^3H]dGTP.
[27] abbreviates: read-out: IC50 HCMV DNA pol, [^3H]dTTP.
Where [28] appears, read: read-out: IC50 α DNA pol, calf thymus DNA, [^3H]dGTP.
The mark [29] stands for this setting: read-out: IC50 HSV-1 DNA pol, [^3H]dGTP.
The mark [30] stands for this setting: read-out: IC50 HSV-1 DNA pol, [^3H]dTTP.

Where two headings read alike, the source gives them in different places.

Consider four compounds from PMC5557014 (Biochemical pharmacology, 2017).

Chain of HSV-1 DNA polymerase (P04293 whole entry): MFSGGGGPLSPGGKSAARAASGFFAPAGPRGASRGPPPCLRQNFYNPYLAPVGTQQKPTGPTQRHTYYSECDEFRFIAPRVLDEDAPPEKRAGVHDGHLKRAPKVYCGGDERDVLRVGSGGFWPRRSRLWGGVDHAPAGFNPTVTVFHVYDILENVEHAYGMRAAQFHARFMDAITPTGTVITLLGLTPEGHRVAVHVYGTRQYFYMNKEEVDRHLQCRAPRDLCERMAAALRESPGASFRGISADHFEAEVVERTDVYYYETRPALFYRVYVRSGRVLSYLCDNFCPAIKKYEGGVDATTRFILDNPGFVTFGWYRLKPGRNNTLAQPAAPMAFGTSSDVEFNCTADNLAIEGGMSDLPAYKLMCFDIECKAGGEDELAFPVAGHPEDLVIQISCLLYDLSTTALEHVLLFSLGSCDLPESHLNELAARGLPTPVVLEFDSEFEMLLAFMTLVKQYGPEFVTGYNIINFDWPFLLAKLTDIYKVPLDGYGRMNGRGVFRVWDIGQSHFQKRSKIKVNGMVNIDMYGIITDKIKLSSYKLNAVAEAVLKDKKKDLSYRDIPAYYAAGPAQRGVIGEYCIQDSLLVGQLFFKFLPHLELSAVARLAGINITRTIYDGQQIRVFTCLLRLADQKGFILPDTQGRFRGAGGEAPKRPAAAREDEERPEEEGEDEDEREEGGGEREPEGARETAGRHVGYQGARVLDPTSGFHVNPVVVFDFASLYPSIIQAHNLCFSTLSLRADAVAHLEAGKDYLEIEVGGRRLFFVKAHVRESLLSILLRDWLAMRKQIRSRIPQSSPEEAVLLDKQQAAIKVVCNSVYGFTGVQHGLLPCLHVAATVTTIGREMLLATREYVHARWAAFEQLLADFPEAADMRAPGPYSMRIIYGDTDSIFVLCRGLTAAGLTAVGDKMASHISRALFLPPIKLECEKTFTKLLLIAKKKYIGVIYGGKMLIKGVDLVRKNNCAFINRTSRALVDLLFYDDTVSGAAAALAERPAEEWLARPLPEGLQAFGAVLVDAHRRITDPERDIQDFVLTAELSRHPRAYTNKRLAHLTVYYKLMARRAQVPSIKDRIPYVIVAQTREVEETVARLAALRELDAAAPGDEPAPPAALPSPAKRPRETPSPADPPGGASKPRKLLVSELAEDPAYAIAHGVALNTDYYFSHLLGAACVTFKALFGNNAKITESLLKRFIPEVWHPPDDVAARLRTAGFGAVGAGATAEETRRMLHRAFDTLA
Chain of HCMV DNA polymerase (P08546 whole entry): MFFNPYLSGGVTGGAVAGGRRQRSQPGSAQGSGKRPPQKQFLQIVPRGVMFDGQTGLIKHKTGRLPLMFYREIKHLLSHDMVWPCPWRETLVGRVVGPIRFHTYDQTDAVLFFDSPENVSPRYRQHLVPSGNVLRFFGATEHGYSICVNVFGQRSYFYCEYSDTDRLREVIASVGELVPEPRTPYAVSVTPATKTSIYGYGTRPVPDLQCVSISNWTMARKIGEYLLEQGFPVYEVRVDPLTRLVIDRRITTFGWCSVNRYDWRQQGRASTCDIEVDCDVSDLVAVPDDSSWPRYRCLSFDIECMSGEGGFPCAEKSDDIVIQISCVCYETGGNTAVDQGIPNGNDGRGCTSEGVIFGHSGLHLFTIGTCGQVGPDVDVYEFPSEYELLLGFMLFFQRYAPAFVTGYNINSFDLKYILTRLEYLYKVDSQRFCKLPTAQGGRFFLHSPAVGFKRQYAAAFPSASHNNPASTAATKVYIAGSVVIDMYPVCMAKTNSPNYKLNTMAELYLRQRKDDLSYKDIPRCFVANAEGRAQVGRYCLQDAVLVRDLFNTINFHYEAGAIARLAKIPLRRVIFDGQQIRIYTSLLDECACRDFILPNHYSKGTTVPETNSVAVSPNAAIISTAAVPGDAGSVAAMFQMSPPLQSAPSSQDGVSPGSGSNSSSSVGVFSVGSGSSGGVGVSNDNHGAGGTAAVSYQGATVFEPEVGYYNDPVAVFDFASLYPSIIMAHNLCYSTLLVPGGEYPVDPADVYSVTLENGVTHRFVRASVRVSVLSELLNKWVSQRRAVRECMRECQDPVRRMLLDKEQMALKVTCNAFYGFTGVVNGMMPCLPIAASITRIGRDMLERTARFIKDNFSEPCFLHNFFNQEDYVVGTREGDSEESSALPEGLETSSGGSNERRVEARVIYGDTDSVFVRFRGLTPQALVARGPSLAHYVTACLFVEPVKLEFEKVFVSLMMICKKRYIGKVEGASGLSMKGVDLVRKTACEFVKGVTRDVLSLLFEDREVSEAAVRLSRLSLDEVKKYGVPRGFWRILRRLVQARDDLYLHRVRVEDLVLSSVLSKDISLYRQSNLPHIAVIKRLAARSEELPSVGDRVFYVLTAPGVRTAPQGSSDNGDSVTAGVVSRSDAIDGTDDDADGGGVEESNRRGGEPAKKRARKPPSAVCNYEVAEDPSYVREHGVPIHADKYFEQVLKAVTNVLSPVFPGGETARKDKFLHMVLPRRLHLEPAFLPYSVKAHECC

For orientation: IC50 means the midpoint of a concentration-inhibition curve. Regarding `Cc1ccnc2c1NC(=O)c1cccnc1N2C1CC1` [Nevirapine], the IC50 was above 250 µM in test [1]; above 250 µM in test [2] (IC50 HCMV DNA pol, [^3H]dGTP); above 250 µM in [2] (IC50 HCMV DNA pol, [^3H]dTTP); above 250 µM in test [3]; above 100 µM in test [4] (IC50 HSV-1 DNA pol, [^3H]dGTP); above 100 µM in test [4] (IC50 HSV-1 DNA pol, [^3H]dTTP).
As to `Cn1c2ccccc2c2c1cc(C#N)c(=O)n2-c1ccc([N+](=O)[O-])cc1` [INDOPY], the “Fold-resistance compared to wild-type” value is reported as 1.0 fold in test [5] (Poly rA.dT [^3H]dTTP); 0.4 fold in [5] (Poly rI.dC [^3H]dCTP); at least 6.7 fold in [6]; 1.0 fold in test [7]; 0.6 fold in test [8]; 0.7 fold in test [9]. Also, the “Fold-resistance compared to wild-type” value is recorded as 0.6 fold in test [10] (Poly rA.dT [^3H]dTTP); 1.1 fold in test [10] (Poly rI.dC [^3H]dCTP); 1.5 fold in [12] (Poly rA.dT [^3H]dTTP); 0.6 fold in test [12] (Poly rI.dC [^3H]dCTP); above 6.7 fold in test [13]; 1.6 fold in [14] (Poly rA.dT [^3H]dTTP). The “Fold-resistance compared to wild-type” value in test [14] (Poly rI.dC [^3H]dCTP) is reported as 0.2 fold; in [15] (Poly rA.dT [^3H]dTTP) it was 1.1 fold; in test [15] (Poly rI.dC [^3H]dCTP) it was 0.6 fold; in test [16] (Poly rA.dT [^3H]dTTP), 1.3 fold; in test [16] (Poly rI.dC [^3H]dCTP), at least 6.7 fold; in test [17], at least 6.7 fold. The “Fold-resistance compared to wild-type” value in [18] (Poly rA.dT [^3H]dTTP) stood at 0.7 fold; in test [18] (Poly rI.dC [^3H]dCTP) it was 1.0 fold; in [19], 3.9 fold; in test [20] (Poly rA.dT [^3H]dTTP), 1.0 fold; in test [20] (Poly rI.dC [^3H]dCTP) it was 1.3 fold; in [21], 1.0 fold. For the same compound, the “Fold-resistance compared to wild-type” value in test [22] (Poly rA.dT [^3H]dTTP) is given as 2.2 fold; in test [22] (Poly rI.dC [^3H]dCTP), 1.9 fold. In addition, the IC50 is 0.26 ± 0.07 µM in test [11] (setting [23]); above 200 µM in [11] (setting [24]); above 100 µM in test [1] (setting [25]); above 100 µM in [2] (setting [26]); above 100 µM in test [2] (setting [27]); above 100 µM in [3] (setting [28]). For the same compound, the IC50 in [4] (setting [29]) and in [4] (setting [30]) was above 100 µM in each case.
`Nc1nc2c(ncn2[C@H]2CC[C@@H](COP(=O)(O)OP(=O)(O)OP(=O)(O)O)O2)c(=O)[nH]1` [ddGTP, 2′,3′-dideoxyguanosine-5′-triphosphate]: the IC50 in test [11] (IC50 HIV-1 RT, poly rA.dT, [^3H]dTTP) was above 100 µM; in [11] (IC50 HIV-1 RT, poly rC.dG, [^3H]dGTP), 0.41 ± 0.02 µM; in test [1], 2.2 ± 1.8 µM; in test [2] (IC50 HCMV DNA pol, [^3H]dGTP) it was 48 ± 15 µM; in [2] (IC50 HCMV DNA pol, [^3H]dTTP) it was above 100 µM; in test [3], 73 ± 8 µM. Further, the IC50 in [4] (IC50 HSV-1 DNA pol, [^3H]dGTP) is 4.5 ± 1.2 µM; in [4] (IC50 HSV-1 DNA pol, [^3H]dTTP), above 100 µM.
Take `O=C(O)P(=O)(O)O` [PFA]: the IC50 in test [11] (setting [23]) was 0.55 ± 0.01 µM; in test [11] (setting [24]) it was 17 ± 2 µM; in test [1] (setting [25]), above 100 µM; in test [2] (setting [26]), 7 ± 0.7 µM; in test [2] (setting [27]) it was 9.4 ± 6 µM; in test [3] (setting [28]), 56 ± 12 µM. For the same compound, the IC50 in [4] (setting [29]) was 1.6 ± 0.8 µM; in test [4] (setting [30]), 3.5 ± 1.7 µM.
